Values after ≈ are worked out from the molar mass of the structure shown.

The source of these data is ChEMBL document CHEMBL3351531, “Scaffold hopping of sampangine: discovery of potent antifungal lead compound against Aspergillus fumigatus and Cryptococcus neoformans” (Bioorg Med Chem Lett, 2014).

Data set [1] has as its system Aspergillus fumigatus. In words: Antifungal activity against Aspergillus fumigatus after 7 days by serial dilution method. The note with it: 168 h. In kind it is functional.
Data set [2] concerns Nannizzia gypsea. In words: Antifungal activity against Microsporum gypseum by serial dilution method. In kind it is functional.
For data set [3], the system named is Candida parapsilosis. Briefly: Antifungal activity against Candida parapsilosis after 24 hrs by serial dilution method. In kind it is functional. The following applies: Lodderomyces parapsilosis.
Data set [4] deals with Candida albicans. Briefly: Antifungal activity against Candida albicans after 24 hrs by serial dilution method. In kind it is functional.
In data set [5] the test system is Nakaseomyces glabratus. In words: Antifungal activity against Candida glabrata after 24 hrs by serial dilution method. In kind it is functional.
Data set [6] deals with Trichophyton rubrum. Briefly: Antifungal activity against Trichophyton rubrum by serial dilution method. In kind it is functional.
Data set [7] deals with Cryptococcus neoformans. Briefly: Antifungal activity against Cryptococcus neoformans after 72 hrs by serial dilution method. In kind it is functional.
Data set [8] in a line: Kinetic solubility of the compound in PBS buffer at pH 7.4. In kind it is physicochemical. The note with it: read-out: Kinetic_solubility.

Broadly, the MIC80 is an inhibitory concentration at the 80% level, which refers to growth in some studies and to a panel of isolates in others. Regarding `O=C1c2occc2-c2nccc3ccnc1c23`, the MIC80 in data set [1] was 32 µg/mL (≈ 144 µM); in data set [2] it was 16 µg/mL (≈ 72 µM); in data set [3], above 64 µg/mL; in data set [4] it was 32 µg/mL (≈ 144 µM); in data set [5], 32 µg/mL (≈ 144 µM); in data set [6] it was 8 µg/mL (≈ 36 µM). For the same compound, the MIC80 in data set [7] is 16 µg/mL (≈ 72 µM).
Consider `O=C1c2ccsc2-c2nc(-c3cccnc3)cc3ccnc1c23`, for which the MIC80 in data set [1] is above 64 µg/mL; in data set [2], 32 µg/mL (≈ 101 µM); in data set [3] it was above 64 µg/mL; in data set [4], 32 µg/mL (≈ 101 µM); in data set [5], above 64 µg/mL; in data set [6], above 64 µg/mL. The compound also displayed an MIC80 in data set [7] of 32 µg/mL (≈ 101 µM).
Take `COc1cnc2c3c(nccc13)-c1sccc1C2=O`: the MIC80 in data set [1], in data set [2], in data set [3], in data set [4], in data set [5] and in data set [6] was above 64 µg/mL in each case. Moreover, the MIC80 in data set [7] was above 64 µg/mL.
Regarding `CN1CCN(c2cnc3c4c(nccc24)-c2sccc2C3=O)CC1`, the MIC80 was above 64 µg/mL in data set [1]; above 64 µg/mL in data set [2]; above 64 µg/mL in data set [3]; above 64 µg/mL in data set [4]; 64 µg/mL (≈ 190 µM) in data set [5]; above 64 µg/mL in data set [6]. The compound further had an MIC80 in data set [7] of 64 µg/mL (≈ 190 µM).
Consider `O=C1c2ccsc2-c2nccc3c(Cl)cnc1c23`, for which the MIC80 in data set [1] is 2 µg/mL (≈ 7.33 µM); in data set [2], 0.125 µg/mL (≈ 0.458 µM); in data set [3], above 64 µg/mL; in data set [4], 32 µg/mL (≈ 117 µM); in data set [5], 0.5 µg/mL (≈ 1.83 µM); in data set [6], 2 µg/mL (≈ 7.33 µM). In data set [7], this compound came in with an MIC80 of 0.5 µg/mL (≈ 1.83 µM).
With `Cc1ccccc1-c1cc2ccnc3c2c(n1)-c1sccc1C3=O`, the MIC80 is above 64 µg/mL in data set [1]; above 64 µg/mL in data set [2]; above 64 µg/mL in data set [3]; 32 µg/mL (≈ 97.4 µM) in data set [4]; above 64 µg/mL in data set [5]; 32 µg/mL (≈ 97.4 µM) in data set [6]. In data set [7], the MIC80 is above 64 µg/mL.
Regarding `O=C1c2cc(Br)sc2-c2nccc3ccnc1c23`, the MIC80 in data set [1] was determined as 4 µg/mL (≈ 12.6 µM); in data set [2] it was 1 µg/mL (≈ 3.15 µM); in data set [3], 64 µg/mL (≈ 202 µM); in data set [4] it was 8 µg/mL (≈ 25.2 µM); in data set [5] it was 4 µg/mL (≈ 12.6 µM); in data set [6], 2 µg/mL (≈ 6.31 µM). Further, the MIC80 in data set [7] worked out at 4 µg/mL (≈ 12.6 µM).
Consider `Cn1cc2c(c1)-c1nccc3ccnc(c13)C2=O`, for which, in data set [8], the solubility kinetic came out at 17 µg/mL (≈ 72.3 µM). Moreover, the MIC80 in data set [1], in data set [2], in data set [3], in data set [4], in data set [5] and in data set [6] was above 64 µg/mL each time. In addition, the MIC80 in data set [7] is above 64 µg/mL.
Consider `O=C1c2ccsc2-c2nccc3ccnc1c23`, for which the solubility kinetic in data set [8] came out at 48 µg/mL (≈ 201 µM). Besides, the MIC80 in data set [1] was found to be 1 µg/mL (≈ 4.2 µM); in data set [2] it was 2 µg/mL (≈ 8.39 µM); in data set [3], 8 µg/mL (≈ 33.6 µM); in data set [4], 4 µg/mL (≈ 16.8 µM); in data set [5] it was 4 µg/mL (≈ 16.8 µM); in data set [6], 2 µg/mL (≈ 8.39 µM). The same compound had an MIC80 in data set [7] of 0.25 µg/mL (≈ 1.05 µM).
Consider `CC1(C)CC2=C(O1)C(=O)c1nccc3ccnc2c13`, for which the solubility kinetic in data set [8] stood at 27 µg/mL (≈ 107 µM). Also, the MIC80 in data set [1] was 1 µg/mL (≈ 3.96 µM); in data set [2], above 64 µg/mL; in data set [3] it was above 64 µg/mL; in data set [4], above 64 µg/mL; in data set [5] it was 0.125 µg/mL (≈ 0.495 µM); in data set [6] it was 8 µg/mL (≈ 31.7 µM). This compound had an MIC80 in data set [7] of 2 µg/mL (≈ 7.93 µM).
Regarding `CC(=O)Nc1ccc(-c2cc3ccnc4c3c(n2)-c2sccc2C4=O)cc1`, the MIC80 in data set [1] was above 64 µg/mL; in data set [2], above 64 µg/mL; in data set [3] it was above 64 µg/mL; in data set [4] it was 32 µg/mL (≈ 86.2 µM); in data set [5], above 64 µg/mL; in data set [6], above 64 µg/mL. The compound also returned an MIC80 in data set [7] above 64 µg/mL.
As to `O=C1c2ccsc2-c2nc(-c3ccccc3)cc3ccnc1c23`, the MIC80 in data set [1] was above 64 µg/mL; in data set [2], above 64 µg/mL; in data set [3] it was above 64 µg/mL; in data set [4], 32 µg/mL (≈ 102 µM); in data set [5], above 64 µg/mL; in data set [6] it was 16 µg/mL (≈ 50.9 µM). This compound came in with an MIC80 in data set [7] of 4 µg/mL (≈ 12.7 µM).
In the case of `Cn1ccc2c1C(=O)c1nccc3ccnc-2c13`, in data set [8], the solubility kinetic was 22 µg/mL (≈ 93.5 µM). Besides, the MIC80 is 64 µg/mL (≈ 272 µM) in data set [1]; above 64 µg/mL in data set [2]; above 64 µg/mL in data set [3]; 64 µg/mL (≈ 272 µM) in data set [4]; 32 µg/mL (≈ 136 µM) in data set [5]; 16 µg/mL (≈ 68 µM) in data set [6]. Also, in data set [7], the MIC80 came out at 8 µg/mL (≈ 34 µM).
Take `OC(Cn1cncn1)(Cn1cncn1)c1ccc(F)cc1F` [FLUCONAZOLE]: the MIC80 in data set [1] is above 64 µg/mL; in data set [2] it was 16 µg/mL (≈ 52.2 µM); in data set [3], 1 µg/mL (≈ 3.27 µM); in data set [4] it was 0.5 µg/mL (≈ 1.63 µM); in data set [5] it was 0.25 µg/mL (≈ 0.816 µM); in data set [6], 0.5 µg/mL (≈ 1.63 µM). Besides, the MIC80 in data set [7] amounted to 0.25 µg/mL (≈ 0.816 µM).
Turning to `O=C1c2ccccc2-c2nccc3ccnc1c23` [SAMPANGINE], in data set [8], the solubility kinetic is 12.6 µg/mL (≈ 54.3 µM). Also, the MIC80 was 16 µg/mL (≈ 68.9 µM) in data set [1]; above 64 µg/mL in data set [2]; 4 µg/mL (≈ 17.2 µM) in data set [3]; 0.5 µg/mL (≈ 2.15 µM) in data set [4]; 0.125 µg/mL (≈ 0.538 µM) in data set [5]; 16 µg/mL (≈ 68.9 µM) in data set [6]. The MIC80 in data set [7] turned out to be 2 µg/mL (≈ 8.61 µM).
For the compound `O=C1c2ccoc2-c2nccc3ccnc1c23`, the MIC80 in data set [1] was 32 µg/mL (≈ 144 µM); in data set [2], 16 µg/mL (≈ 72 µM); in data set [3] it was above 64 µg/mL; in data set [4], 32 µg/mL (≈ 144 µM); in data set [5], 64 µg/mL (≈ 288 µM); in data set [6], 8 µg/mL (≈ 36 µM). In addition, the MIC80 in data set [7] was 8 µg/mL (≈ 36 µM).
`O=C1c2cc(Cl)sc2-c2nccc3c(Cl)cnc1c23`: the MIC80 in data set [1] was above 64 µg/mL; in data set [2] it was 8 µg/mL (≈ 26 µM); in data set [3] it was above 64 µg/mL; in data set [4], 32 µg/mL (≈ 104 µM); in data set [5], above 64 µg/mL; in data set [6], above 64 µg/mL. The MIC80 in data set [7] is above 64 µg/mL.
Regarding `O=C1c2ccsc2-c2nccc3c(Br)cnc1c23`, the MIC80 in data set [1] turned out to be 8 µg/mL (≈ 25.2 µM); in data set [2], 0.5 µg/mL (≈ 1.58 µM); in data set [3] it was 16 µg/mL (≈ 50.4 µM); in data set [4], 4 µg/mL (≈ 12.6 µM); in data set [5] it was 4 µg/mL (≈ 12.6 µM); in data set [6] it was 2 µg/mL (≈ 6.31 µM). In data set [7], this compound had an MIC80 of 4 µg/mL (≈ 12.6 µM).
